Assay results published in patent publication US20070287830A1, “Trisazo Dye, Composition Containing the Same for Anisotropic Dye Film, Anisotropic Dye Film, and Polarizing Element” (Mitsubishi Chemical Corporation, priority 2004, published 2007).

Assays:
[1] = degree of polarization of anisotropic dye film formed by wet system film-forming method; type: physicochemical
Text: In the following Examples, the degree of polarization was obtained by measuring the transmittance of an anisotropic dye film by a spectrophotometer having an iodine type polarizing element disposed in an incident optical system, followed by calculation in accordance with the following formula: Degree of polarization (P %)={(Ty−Tz)/(Ty+Tz)}×100
Tz: transmittance of a dye film for a polarized light in the absorption axis direction
Ty: transmittance of a dye film for a polarized light in the polarization axis direction
On the other hand, as a substrate, a glass substrate having a polyimide oriented film formed thereon by silk printing (75 mm×25 mm, thickness 1.1 mm, the polyimide oriented film with a polyimide film thickness of about 800 Å preliminarily subjected to rubbing treatment with cotton cloth) was prepared. […]
The transmittance (Tz) of the obtained anisotropic dye film for a polarized light having a plane of vibration in the absorption axis direction in the plane of the dye film and the transmittance (Ty) for a polarized light having a plane of vibration in the polarization axis direction in the plane of the dye film were measured and shown in FIG. 1. […]

[2] = transmission chromaticity and excitation purity of dye aqueous solution under standard illuminant D65; type: physicochemical
Experimental: Here the excitation purity is obtained in such a manner that the chromaticity coordinates N of standard illuminant and the chromaticity coordinates C of the obtained dye in the chromaticity diagram are connected with a straight line, and the wavelength corresponding to the intersection point of the extension of the straight line and the spectrum locus is taken as the dominant wavelength, and the excitation purity is calculated from the proportion at the respective points. The chromaticity coordinate C can be obtained in such a manner that the dye is added to water to obtain a dye aqueous solution, the visible light transmittance of the aqueous solution is measured by a spectrophotometer, and the chromaticities x and y in the CIE 1964 supplementary standard […] system under standard illuminant D65 are calculated.
The excitation purity of the dye in the present invention means one measured and calculated with respect to the dye aqueous solution obtained by adding the dye to water and the excitation purity of the anisotropic dye film means one measured and calculated with respect to a film formed by applying a composition for an anisotropic dye film described hereinafter in detail to a substrate. […]

degree of polarization (P %) (light absorption anisotropy) ([1]; spin coated on rubbed polyimide/glass, from about 500 nm to about 650 nm): at least 80% | degree of polarization (P %) ([1]; vicinity of maximum absorption wavelength, from 550 nm to 600 nm): at least 90% | excitation purity (pe) ([2]; dye aqueous solution at a concentration of 10%, optical path length 0.01 mm, D65): 17%
SMILES: COc1cc(N=Nc2c(S(=O)(=O)O)cc3ccc(N=Nc4cc(S(=O)(=O)O)c(N)cc4N)cc3c2O)c(OC)cc1N=Nc1ccc(OC)c(S(=O)(=O)O)c1 [dye No. (1-1)]
trail of the chromaticity of the aqueous solution at the respective dye concentrations ([2]; C.I.E. chromaticity diagram, 10% (or 5 wt %), 1,000 ppm and 10 ppm): passed near the chromaticity (w) of standard illuminant D65
